Key:
[1] = Photostability test under 760 nm laser; type: physicochemical; settings: all tested solvents, up to 4 h
Protocol: Photostability assay was conducted to compare ZW800‐1C with ZWPro in PBS and also evaluated ZWPro in distilled water and 10% FBS in PBS exposed to continuous irradiation using a 760 nm laser diode at 4 mW cm^−2, with white light (400–650 nm) at 40 000 lux and imaged up to 4 h. The fluorescence intensity (FI) signal (%) was calculated by measured values with ImageJ version 1.53t using images captured at each time point. Fluorescence values of the quenching assay were conducted at different concentration points at 0 and 4 h to determine the quenching concentration and to assess any significant photodegradation or photobleaching effects.
The data, presented as mean ± SD, assessed the fluorescence image by measuring regions of interest (ROI) and comparing fluorescence intensity against the initial fluorescence signal.
Figure S3. Optical property characterization of the ZWPro (a) Absorbance and Fluorescence spectra of ZWPro and optical properties of Pro, ZW800-1C, and ZWPro. (b) Stability test of ZWPro with PBS and 10% FBS in PBS until 24 h at 37 °C incubator. (c) Fluorescence image and value are used to determine quenching concentration under a 760nm channel of different concentrations of ZWPro depending on time. Photostability test of (d) ZW800-1C and ZWPro in PBS. (e) Photostability test of ZWPro in different solvents. DW: Distilled water, 10% FBS: Fetal bovine serum in PBS. […]

HT29 cells [2] = experiment: WST-8 cytotoxicity assay; type: cell-based, human; settings: 5, 10 and 20 µM, 24 h (Figure S4); n = 5
Protocol: (§1) Figure 2 In vitro cellular evaluations of ZWPro in cancer cells. a) Cytotoxicity assay showing HT29, MCF7, L929, and NIH3T3 cells treated with 20 µM of ZW and ZWPro for 2 and 24 h, respectively, followed by an assessment of cell viability using the water‐soluble tetrazolium assay (n = 5, mean ± s.e.m.). b) Cellular uptake and intracellular endosomal localization of ZW and ZWPro were observed by treating HT29 and L929 cells with 20 µM of ZW and ZWPro. […] The internalization index was determined in 2–9 photographic areas (ns, not significant, *p < 0.05 based on two‐way analysis of variance followed by Bonferroni's multiple comparison test). c) Inhibition assay of cellular uptake of ZWPro to determine the entry mechanisms in HT29 cells. […] The co‐localizing pixels (%) were calculated by dividing the area of overlap between ZWPro and LysoTracker by the total area of the LysoTracker, respectively. […]
(§2) To evaluate the cytotoxicity of ZW and ZWPro in cancer and normal cells, HT29, MCF7, L929, and NIH 3T3 cells were collected by trypsinization and resuspended in 96‐well plates at a concentration of 10 000 cells/well in fresh growth media and incubated for 1 d at 37 °C under 5% CO2 conditions. […] Absorption was subsequently measured at 450 nm on a microplate reader (Thermo Scientific, Varioskan LUX multimode). […]

MCF7 cells [3] = experiment: WST-8 cytotoxicity assay; type: cell-based; settings: 5, 10 and 20 µM, 24 h (Figure S4); n = 5
Protocol: as §1, §2

L929 cells [4] = experiment: WST-8 cytotoxicity assay; type: cell-based, mouse; settings: 5, 10 and 20 µM, 24 h (Figure S4); n = 5
Protocol: (§3) Figure 2 In vitro cellular evaluations of ZWPro in cancer cells. a) Cytotoxicity assay showing HT29, MCF7, L929, and NIH3T3 cells treated with 20 µM of ZW and ZWPro for 2 and 24 h, respectively, followed by an assessment of cell viability using the water‐soluble tetrazolium assay (n = 5, mean ± s.e.m.). b) Cellular uptake and intracellular endosomal localization of ZW and ZWPro were observed by treating HT29 and L929 cells with 20 µM of ZW and ZWPro. […] The internalization index was determined in 2–9 photographic areas (ns, not significant, *p < 0.05 based on two‐way analysis of variance followed by Bonferroni's multiple comparison test). c) Inhibition assay of cellular uptake of ZWPro to determine the entry mechanisms in HT29 cells. Cultured cells were incubated with bromsulphthalein for 20 min and then incubated with ZWPro (20 µM) in media for 15 min. Data are presented as means ± standard deviations (n = 7–8) **p < 0.01 based on Welch's t‐test. d) Findings from HT29 human colorectal adenocarcinoma cells and L929 fibroblast cell lines co‐stained with the lysosome marker LysoTracker Green. Co‐localization occurs at specific time intervals during imaging. The co‐localizing pixels (%) were calculated by dividing the area of overlap between ZWPro and LysoTracker by the total area of the LysoTracker, respectively. Scale bars: 10 µm.
(§4) To evaluate the cytotoxicity of ZW and ZWPro in cancer and normal cells, HT29, MCF7, L929, and NIH 3T3 cells were collected by trypsinization and resuspended in 96‐well plates at a concentration of 10 000 cells/well in fresh growth media and incubated for 1 d at 37 °C under 5% CO2 conditions. After the cells were completely attached to the walls, the original medium was discarded and replaced with a 200 µL fresh culture medium which contained different concentrations of ZW and ZWPro. Cells were then cultured in a constant temperature incubator for 2 and 24 h. EZ‐Cytox solution (10%) was then added to each well, and the plates were incubated at 37 °C in a 5% CO2 incubator for 2 h in the dark. Cells were then exposed to a digital orbital shaker (Scilab Instruments Co, No. SSO‐2D) at 200 rpm. Absorption was subsequently measured at 450 nm on a microplate reader (Thermo Scientific, Varioskan LUX multimode). […] Statistical analysis was conducted using the software GraphPad Prism 8.

NIH 3T3 cells = experiment: WST-8 cytotoxicity assay; type: cell-based, mouse; settings: 5, 10 and 20 µM, 24 h (Figure S4); n = 5
Protocol: as §3, §4

HT29 cells [5] = experiment: Cellular uptake by fluorescence microscopy; type: cell-based, human; settings: 20 µM, 2 h, 37 °C; NIR fluorescence microscopy
Protocol: (§5) Figure 2 In vitro cellular evaluations of ZWPro in cancer cells. a) Cytotoxicity assay showing HT29, MCF7, L929, and NIH3T3 cells treated with 20 µM of ZW and ZWPro for 2 and 24 h, respectively, followed by an assessment of cell viability using the water‐soluble tetrazolium assay (n = 5, mean ± s.e.m.). b) Cellular uptake and intracellular endosomal localization of ZW and ZWPro were observed by treating HT29 and L929 cells with 20 µM of ZW and ZWPro. […] The internalization index was determined in 2–9 photographic areas (ns, not significant, *p < 0.05 based on two‐way analysis of variance followed by Bonferroni's multiple comparison test). c) Inhibition assay of cellular uptake of ZWPro to determine the entry mechanisms in HT29 cells. Cultured cells were incubated with bromsulphthalein for 20 min and then incubated with ZWPro (20 µM) in media for 15 min. […] The co‐localizing pixels (%) were calculated by dividing the area of overlap between ZWPro and LysoTracker by the total area of the LysoTracker, respectively. […]
(§6) Fluorescence microscopic assessments were performed to compare the intracellular uptake of ZW and ZWPro in cancerous and normal cells. […] The fluorescent intensity of each cell was measured using ImageJ (version 1.51j8, National Institutes of Health, Bethesda, MD, USA). The outline of each cell was determined on a phase‐contrast image.

L929 cells [6] = experiment: Cellular uptake by fluorescence microscopy; type: cell-based, mouse; settings: 20 µM, 2 h, 37 °C; NIR fluorescence microscopy
Protocol: as §5, §6

MCF7 cells [7] = experiment: Cellular uptake by fluorescence microscopy; type: cell-based; settings: 20 µM, 2 h, 37 °C; fluorescent microscopy
Protocol: (§7) Fluorescence microscopic assessments were performed to compare the intracellular uptake of ZW and ZWPro in cancerous and normal cells. Two sets of cathepsin B‐expressing cancer cells (HT29 and MCF7) and 2 sets of normal cells (L929 and NIH3T3) were seeded in a confocal dish and incubated at 37 °C for 1 d before treatment. Subsequently, 20 µM ZWPro and ZW were added to the cells for 2 h. Subsequently, 50 nM of LysoTracker Green (a fluorescent dye that selectively labels lysosomes) was added for 30 min. Following incubation with the dye, the cells were resuspended with fresh media after they were rinsed 3 times with 1X PBS to remove any remaining dye, and imaging was performed. To determine the role of organic anion transporter peptides (OATPs) in the ZWPro uptake process, HT29 cells were pretreated with BSP (250 µM, Sigma–Aldrich, 167 207) for 20 min in the inhibition assay. Cells were then incubated with 20 µM of ZWPro at 37 °C for 15 min. After washing, cell images were obtained. Images were obtained using a Nikon Eclipse inverted microscope, DS‐Ri2, or DS‐Qi2 (Ex/Em, 754/774 nm; exposure time, 2 s). The fluorescent intensity of each cell was measured using ImageJ (version 1.51j8, National Institutes of Health, Bethesda, MD, USA). The outline of each cell was determined on a phase‐contrast image.
(§8) Figure S5. Cellular uptake and intracellular localization of ZW and ZWPro. […]

NIH3T3 cells = experiment: Cellular uptake by fluorescence microscopy; type: cell-based, mouse; settings: 20 µM, 2 h, 37 °C; fluorescent microscopy
Protocol: as §7, §8

HT29 tumor-bearing mice [8] = experiment: Time-dependent in vivo NIR tumor imaging and biodistribution; settings: 20 nmol i.v., real-time NIR fluorescence imaging
From the text: Figure 4 In vivo, tumor growth inhibition and studies in tumor‐induced mice subcutaneously injected with HT29 cells and treated with ZWPro. a) Schematic of the treatment schedule and experimental design of PBS, ZW, and ZWPro. Biodistribution and pharmacokinetic (PK) parameters of targeted ZW and ZWPro in normal mice. PK parameters of ZW and ZWPro (0.3 µmol kg^−1) (t1/2α; distribution half‐life, t1/2β; elimination half‐life, AUC; area under the curve, Vd volume of distribution, and urinary excretion (% injected dose, %ID)) were calculated using the software Prism 9. Urinary excretion occurred at 48 h post‐injection (n = 2–3 per group, mean ± s.e.m.). (b) In total, 20 nmol of each compound was injected into BLAB/C nude mice (weights = 20–25 g) and time‐dependent imaging was performed post‐injection. c) Color and NIR fluorescence in vivo images of ZW and ZWPro (0.3 µmol kg^−1) were taken at different time intervals. d) Tumor‐to‐background (TBR) ratios of tumors (white dotted circles in (c)) compared with muscles obtained from at each time point; and e) signal‐to‐background (SBR) outcomes were calculated using NIR images of resected organs at 48 h post‐injection. (Exposure time = 100 ms, n = 3, mean ± s.e.m.) The SBR was calculated by the fluorescence intensity of each organ (Or) against the system background (Exposure time = 1000 ms, n = 3, mean ± s.e.m.). […]

HT29 tumor-bearing mice [9] = experiment: In vivo tumor reduction test; settings: i.v. 50 nmol (9.5 mg kg−1) twice; weighed every other day for 30 days; versus control group
Protocol: Owing to the cancer‐specific cytotoxicity of ZWPro, the in vivo tumor targetability and theranostic capacity of ZWPro were evaluated in HT29 tumor‐bearing mice. Preliminary studies were conducted to determine the optimal dosage of ZWPro to achieve effective anticancer activity. […] To investigate the antitumor impact, mice were intravenously injected with PBS (150 µL) (control group), and with ZWPro (150 µL) or ZW (150 µL, 50 nmol at 9.5 mg k^−1g). […] The tumor size increased slightly after the treatment on d 0. […] Stable mouse body weights were observed across all experimental groups. After 30 d of treatment with ZWPro, tumors were smaller than those in the ZW and PBS groups (Figure 4g).
Figure 4 In vivo, tumor growth inhibition and studies in tumor‐induced mice subcutaneously injected with HT29 cells and treated with ZWPro. a) Schematic of the treatment schedule and experimental design of PBS, ZW, and ZWPro. […] PK parameters of ZW and ZWPro (0.3 µmol kg^−1) (t1/2α; distribution half‐life, t1/2β; elimination half‐life, AUC; area under the curve, Vd volume of distribution, and urinary excretion (% injected dose, %ID)) were calculated using the software Prism 9. […] (Exposure time = 100 ms, n = 3, mean ± s.e.m.) The SBR was calculated by the fluorescence intensity of each organ (Or) against the system background (Exposure time = 1000 ms, n = 3, mean ± s.e.m.). […]

[10] = cited from earlier work
From the text: The zwitterionic fluorophore ZW (emitting NIR fluorescence at 800 nm) was synthesized as reported previously.^[ [6] ^] […] To create the ZWPro conjugate, ZW (1.2 equiv.) was covalently attached to Pro using N‐Hydroxysuccinimide (NHS) ester and led to a stable amide bond formation (Figure 1b). Pro peptides were en ...

## CC1(C)C(/C=C/C2=C(c3ccc(CCC(=O)O)cc3)C(=C/C=C3/N(CCC[N+](C)(C)C)c4ccc(S(=O)(=O)O)cc4C3(C)C)/CCC2)=[N+](CCC[N+](C)(C)C)c2ccc(S(=O)(=O)O)cc21 [ZW, ZW800‐1C]
[1]
  photostability (in words): strong photostability
HT29 cells [2]
  toxicity (in words): negligible toxicity
MCF7 cells [3]
  toxicity (in words): negligible toxicity
L929 cells [4]
  toxicity (in words): negligible toxicity
NIH 3T3 cells
  toxicity (in words): negligible toxicity
HT29 cells [5]
  cellular uptake / internalization (in words): not internalized
L929 cells [6]
  cellular uptake / internalization (in words): not internalized
MCF7 cells [7]
  cellular uptake / internalization (in words): does not show internalization
NIH3T3 cells
  cellular uptake / internalization (in words): does not show internalization
HT29 tumor-bearing mice [8]
  tumor targeting / accumulation (in words): no tumor specificity or cell penetration ability
HT29 tumor-bearing mice [9]
  body weight change (in words): neither ZWPro nor ZW resulted in weight loss
[10]
  plasma protein binding (in words): low‐plasma protein binding

## Protamine
HT29 cells [2]
  toxicity (in words): negligible toxicity
MCF7 cells [3]
  toxicity (in words): negligible toxicity
L929 cells [4]
  toxicity (in words): negligible toxicity
NIH 3T3 cells
  toxicity (in words): negligible toxicity

— article PMC11538690, “Lysosome‐Targeted Bifunctional Therapeutics Induce Autodynamic Cancer Therapy” (Advanced Science, 2024)
